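1) Cells in 96-well plates. 2) Compound, 48 h, 5 concentrations. 3) Linear interpolation between surrounding doses. 4) Unreached endpoint = highest concentration. TGI denotes the concentration required for complete inhibition of growth.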 Where a SMILES comes first, the peptide text is derived from it. [ ]: non-standard residue; d: D form. The star is where a group is joined. ξ: configuration not given here. ξF = NC(Cc1ccccc1)C(=O)O; Cbz = O=C(OCc1ccccc1)*
Key:
Test in all cases: growth of human tumour cells (NCI), 48 h
[1] = system: BT-549 breast
[2] = system: DU-145 prostate
[3] = system: HCT-116 colon
[4] = system: HCT-15 colon
[5] = system: KM12 colon
[6] = system: MCF7 breast
[7] = system: MDA-N
[8] = system: NCI-H23 lung
[9] = system: NCI/ADR-RES ovarian
[10] = system: SK-MEL-2 melanoma
[11] = system: SW-620 colon
[12] = system: U251 CNS
[13] = system: OVCAR-4 ovarian

Row | Structure (SMILES) | TGI [1] | TGI [2] | TGI [3] | TGI [4] | TGI [5] | TGI [6] | TGI [7] | TGI [8] | TGI [9] | TGI [10] | TGI [11] | TGI [12] | TGI [13]
1 | O=C(c1ccc(Cl)cc1)N(C(=O)N1CCCCC1)c1ccccc1 | > 100 µM | > 100 µM | > 100 µM | > 100 µM | > 100 µM | > 100 µM | > 100 µM | > 100 µM | > 100 µM | > 100 µM | > 100 µM | > 100 µM | 
2 | NNc1nnc(CCCCCCCCc2nnc(NN)n2N)n1N | 90.3 µM | > 100 µM | > 100 µM | > 100 µM | > 100 µM | > 100 µM | > 100 µM | > 100 µM | > 100 µM | > 100 µM | > 100 µM | 49 µM | > 100 µM
3 | CC(=O)NC1C(OCC(=O)NCCNc2ccc([N+](=O)[O-])c3[nH]c4ccccc4c(=O)c23)C(O)C(CO)OC1(C)OCc1ccccc1 (stereo unspecified) | > 100 µM | > 100 µM | > 100 µM | > 100 µM | > 100 µM | > 100 µM | > 100 µM | > 100 µM | > 100 µM | > 100 µM | > 100 µM | > 100 µM | > 100 µM
4 | CCOC(=O)CNC(=O)C(Cc1ccccc1)NC(=O)OCc1ccccc1 (stereo unspecified) (Cbz-[ξF]-Gly-OEt) | > 100 µM | > 100 µM | > 100 µM | > 100 µM | > 100 µM | > 100 µM | > 100 µM | > 100 µM | > 100 µM |  | > 100 µM | > 100 µM | 
5 | CCCCCCCCCCCCCCCCCCNc1ccn(C2OC(COP(=O)(O)OCC3OC(n4ccc(N)nc4=O)C(O)C3O)C(O)C2O)c(=O)n1 (stereo unspecified) | > 87.9 µM | > 100 µM | > 100 µM | > 100 µM | > 100 µM | > 100 µM | > 100 µM | > 100 µM | > 100 µM | > 100 µM | > 100 µM | > 100 µM | > 100 µM
6 | CCN1/C(=C/C#C/C(C)=C\c2sc3ccc(Cl)cc3[n+]2CC)Sc2ccc(Cl)cc21 | 6 µM | 15.5 µM | 12.3 µM | > 100 µM | 19.4 µM | 15.3 µM | 12.9 µM |  | 80.4 µM | 4.85 µM |  | 23.2 µM | > 100 µM
7 | O=c1[nH]c(N/N=C\C(O)C(O)C(O)C(O)CO)nc2ccccc12 (stereo unspecified) | > 100 µM | > 100 µM | > 100 µM | > 100 µM | > 100 µM | > 100 µM | > 100 µM | > 100 µM | > 100 µM | > 100 µM | > 100 µM | > 100 µM | 
8 | Cc1cccc2sc(NC(=O)NS(=O)(=O)n3cnc4ccccc43)nc12 | 59.9 µM | > 100 µM | 99.3 µM | > 100 µM | > 100 µM | > 100 µM | > 100 µM | 43.6 µM | > 100 µM | 35.6 µM | > 100 µM | 48.2 µM | > 100 µM
9 | COC1(OC)CCc2c(sc3ncnc(Nc4cccc(Br)c4)c23)C1 | > 100 µM | 53.9 µM | > 100 µM | > 100 µM | > 100 µM | > 100 µM | > 100 µM | > 100 µM | 76.3 µM | > 100 µM | > 100 µM | > 100 µM | > 100 µM

— PubChem BioAssay (NCI)
